≈ marks a conversion by molar mass, not a printed value. Like-named read-outs stand apart in the source and are kept apart here.
Columns and labels:
[1] = solubility in buffer solution; type: physicochemical; details: pH 7.5, aqueous buffer
Protocol: Said solubilities are given in g. of rifamycin % ml. of buffer solution (pH=7,5 and t=22° C.). DA means desacetyl.

in vivo = details: mouse

solubility ([1]; buffer) [µg/mL] | Structure (SMILES) | LD50 (in vivo; iv) [mg/kg] | LD50 (in vivo; ip, acute toxicity, mice) [mg/kg] | solubility ([1]; buffer solution, pH = 7,5, 22° C., read-out: Solubility) [µg/mL]
150 (≈ 199 µM) | CON=Cc1c2c(O)c3c(O)c(C)c4c(c3c1O)C(=O)C(C)(OC=CC(OC)C(C)C(OC(C)=O)C(C)C(O)C(C)C(O)C(C)C=CC=C(C)C(=O)N2)O4 (stereo not shown) [3-methoximinomethyl-rifamycin SV, reference compound] |  |  | 
1260 (≈ 1700 µM) | CCN(CC)Cc1c2c(O)c3c(O)c(C)c4c(c3c1O)C(=O)C(C)(OC=CC(OC)C(C)C(O)C(C)C(O)C(C)C(O)C(C)C=CC=C(C)C(=O)N2)O4 (stereo not shown) [25-DA-3-diethylaminomethyl-rifamycin SV, 25-desacetyl-3-diethylaminomethyl-rifamycin SV] |  |  | 
420 (≈ 536 µM) | CCN(CC)Cc1c2c(O)c3c(O)c(C)c4c(c3c1O)C(=O)C(C)(OC=CC(OC)C(C)C(OC(C)=O)C(C)C(O)C(C)C(O)C(C)C=CC=C(C)C(=O)N2)O4 (stereo not shown) [3-diethylaminomethyl-rifamycin SV, reference compound] |  |  | 
 | CCN(CC)C(=O)COc1cc2c(O)c3c(O)c(C)c4c(c13)C(=O)C(C)(OC=CC(OC)C(C)C(O)C(C)C(O)C(C)C(O)C(C)C=CC=C(C)C(=O)N2)O4 (stereo not shown) [25-DA-rifamycin B diethylamide] | 600 |  | 
60 (≈ 76.8 µM) | COC1C=COC2(C)Oc3c(C)c(O)c4c(O)c(c(CN5CCCC5)c(O)c4c3C2=O)NC(=O)C(C)=CC=CC(C)C(O)C(C)C(O)C(C)C(OC(C)=O)C1C (stereo not shown) [3-pyrrolidino-methyl-rifamycin SV, reference compound] |  |  | 
2800 (≈ 3790 µM) | COC1C=COC2(C)Oc3c(C)c(O)c4c(O)c(c(CN5CCCC5)c(O)c4c3C2=O)NC(=O)C(C)=CC=CC(C)C(O)C(C)C(O)C(C)C(O)C1C (stereo not shown) [25-DA-3-pyrrolidino-methyl-rifamycin SV] |  |  | 
 | COC1C=COC2(C)Oc3c(C)c(O)c4c(O)c(c(C=NN5CCN(C)CC5)c(O)c4c3C2=O)NC(=O)C(C)=CC=CC(C)C(O)C(C)C(O)C(C)C(OC(C)=O)C1C (stereo not shown) [3-(4-methyl-piperazinyl-iminomethyl)-rifamycin SV, reference compound] |  | 460 | 2850 (≈ 3460 µM)

Structure (SMILES) | solubility ([1]; buffer) [µg/mL] | LD50 (in vivo; iv) [mg/kg] | LD50 (in vivo; ip, acute toxicity, mice) [mg/kg] | solubility ([1]; buffer solution, pH = 7,5, 22° C., read-out: Solubility) [µg/mL]
CON=Cc1c2c(O)c3c(O)c(C)c4c(c3c1O)C(=O)C(C)(OC=CC(OC)C(C)C(O)C(C)C(O)C(C)C(O)C(C)C=CC=C(C)C(=O)N2)O4 (stereo not shown) [25-DA-3-methoximinomethyl-rifamycin SV] | 340 (≈ 477 µM) |  | 560 | 
COC1C=COC2(C)Oc3c(C)c(O)c4c(O)c(c(C=NN5CCN(C)CC5)c(O)c4c3C2=O)NC(=O)C(C)=CC=CC(C)C(O)C(C)C(O)C(C)C(O)C1C (stereo not shown) [25-DA-3-(4-methyl-piperazinyl-iminomethyl)-rifamycin SV] | 7600 (≈ 9730 µM) |  | 850 | 
COC1C=COC2(C)Oc3c(C)c(O)c4c(O)c(c(C=O)c(O)c4c3C2=O)NC(=O)C(C)=CC=CC(C)C(O)C(C)C(O)C(C)C(O)C1C (stereo not shown) [25-DA-3-formyl-rifamycin SV] | 34300 (≈ 50200 µM) |  | 550 | 
COC1C=COC2(C)Oc3c(C)c(O)c4c(O)c(c(C=O)c(O)c4c3C2=O)NC(=O)C(C)=CC=CC(C)C(O)C(C)C(O)C(C)C(OC(C)=O)C1C (stereo not shown) [3-formyl-rifamycin SV, reference compound] | 6400 (≈ 8820 µM) |  | 300 | 
